Reference: patent publication US9447136B2, “Semisynthetic derivatives of Nystatin A1” (BLIRT S.A., priority 2012, dated 2016)
Converted amounts (≈) assume the structure as drawn. Where two headings read alike, the source gives them in different places.

What was measured:
[1] = assay type: physicochemical
Text: As described herein, a compound of the invention may also be provided in the form of a complex, with a complexing agent.

Human erythrocytes = assay: Hemotoxicity (hemolytic activity); conditions: human erythrocytes; for EH10: concentration causing 10% of hemolysis
How it was run: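 Human erythrocytes in saline (2×10^7/ml) were incubated with serially diluted compound at 37 °C for 30 min, then centrifuged. Released hemoglobin was read as A540 against 0.1% Triton X-100 as full hemolysis. EH50 is the interpolated concentration giving 50% of the control A540.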

LLC-PK1 = assay: Cytotoxic activity against mammalian cells in tissue culture (MTT); assay type: cell-based, pig
How it was run: (§1)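 Cells at 1.2×10^4/well were exposed to serial 2× DMSO dilutions for 120 h at 37 °C: CCRF-CEM in RPMI 1640 + 10% FBS, HepG2 in MEM + 10% FBS, LLC-PK1 in Medium 199 + 3% FBS. MTT was added for 4 h and A540 read. IC50 is the concentration halving A540 versus DMSO control.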

HepG2 = assay: as above; assay type: cell-based, human
How it was run: as §1

CCRF-CEM = assay: as above; assay type: cell-based, human
How it was run: as §1

Candida arborea KKP 319 = assay: Antifungal activity in vitro, serial dilution in RPMI 1640; assay type: cell-based; conditions: Table 2B
How it was run: (§2)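 In buffered RPMI 1640 at pH 7.0, fungi were exposed to serially diluted compound (M27-A2 standard) and turbidity was recorded at 531 nm. Values relative to control: IC50 at 50%, MIC as lowest concentration at ≤20%.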

[2] = tested on: Candida lusitaniae DSM 70102; assay: as above; assay type: cell-based; conditions: Table 2A; RPMI 1640, pH 7.0
How it was run: as §2

[3] = tested on: Saccharomyces cerevisiae ATCC 9763; assay: as above; assay type: cell-based; conditions: for Antifungal activity Saccharomyces cerevisiae ATCC 9763 MIC: Table 2A, RPMI 1640, pH 7.0, A531 at most 20% of control; for MIC Saccharomyces cerevisiae ATCC 9763: Table 2B
How it was run: as §2

[4] = tested on: Candida dubliniensis CBS 7987; assay: as above; assay type: cell-based; conditions: Table 2B
How it was run: as §2

[5] = tested on: Candida glabrata DSM 11226; assay: as above; assay type: cell-based; conditions: Table 2A; RPMI 1640, pH 7.0
How it was run: as §2

[6] = tested on: Aspergillus niger LOCK E201; assay: as above; assay type: cell-based; conditions: Table 2B
How it was run: as §2

Candida krusei DSM 6128 = assay: as above; assay type: cell-based; conditions: Table 2A; RPMI 1640, pH 7.0
How it was run: as §2

[7] = tested on: Candida lipolytica KKP 322; assay: as above; assay type: cell-based; conditions: Table 2B
How it was run: as §2

[8] = tested on: Trichoderma viride LOCK E159; assay: as above; assay type: cell-based; conditions: Table 2B
How it was run: as §2

[9] = tested on: Candida albicans ATCC 10231; assay: as above; assay type: cell-based; conditions: for Antifungal activity Candida albicans ATCC 10231 IC50 / Antifungal activity Candida albicans ATCC 10231 MIC: Table 2A, RPMI 1640, pH 7.0; for Antifungal activity Candida albicans ATCC 10231 IC50: A531 50% of control; for Antifungal activity Candida albicans ATCC 10231 MIC: A531 at most 20% of control; for MIC Candida albicans ATCC 10231: Table 2B
How it was run: as §2

[10] = tested on: Candida quilliermondii DSM 11947; assay: as above; assay type: cell-based; conditions: Table 2B
How it was run: as §2

[11] = tested on: Candida parapsilosis DSM 5784; assay: as above; assay type: cell-based; conditions: Table 2B
How it was run: as §2

[12] = tested on: Candida tropicalis KKP 334; assay: as above; assay type: cell-based; conditions: Table 2A; RPMI 1640, pH 7.0
How it was run: as §2

[13] = tested on: Candida stellatoidea CBS 1905; assay: as above; assay type: cell-based; conditions: Table 2B
How it was run: as §2

[14] = tested on: Candida pseudotropicalis KKP 324; assay: as above; assay type: cell-based; conditions: Table 2B
How it was run: as §2

Candida albicans F2 = assay: Antifungal activity towards resistant (MDR) strains; assay type: cell-based; conditions: fluconazole sensitive, parent strain for F5
How it was run: (§3)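 Growth inhibition assessed by turbidity (A660) after serial dilution of test compounds in buffered RPMI 1640 under the approved M27-A2 protocol. The MIC was determined graphically as the concentration where absorbance fell to 20% or less of the untreated control.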

Candida albicans STY31 = assay: as above; assay type: cell-based; conditions: 5674 mutant derivative, deletion of CDR1 and CDR2
How it was run: (§4)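 Compounds are serially diluted in buffered RPMI 1640 per the M27-A2 broth dilution standard. Cell suspension density is measured at 660 nm. Plots of A660 against compound concentration give the MIC, defined as the concentration holding A660 to at most 20% of control.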

Candida albicans F5 = assay: as above; assay type: cell-based; conditions: fluconazole-resistant due to the overexpression of CaMDR1 and ERG11
How it was run: as §4

Candida albicans STY19 = assay: as above; assay type: cell-based; conditions: 5674 mutant derivative, deletion of CDR1
How it was run: as §4

Candida albicans Gu4 = assay: as above; assay type: cell-based; conditions: fluconazole sensitive, parent strain for Gu5
How it was run: as §3

Candida albicans 5674 = assay: as above; assay type: cell-based; conditions: C. albicans 5674 overexpressing CDR1 and CDR2
How it was run: as §4

Candida albicans B4 = assay: as above; assay type: cell-based; conditions: fluconazole-resistant due to the overexpression of CaMDR1
How it was run: as §4

Candida albicans B3 = assay: as above; assay type: cell-based; conditions: fluconazole sensitive, parent strain for B4
How it was run: as §3

Candida albicans Gu5 = assay: as above; assay type: cell-based; conditions: fluconazole-resistant due to the overexpression of CDR1 and CDR2
How it was run: as §3

Candida albicans STY7 = assay: as above; assay type: cell-based; conditions: 5674 mutant derivative, deletion of CDR2
How it was run: as §4

Row | Structure (SMILES) | EH10 (Human erythrocytes) | MIC Candida arborea KKP 319 (Candida arborea KKP 319) | Antifungal activity Candida lusitaniae DSM 70102 MIC [2] | Antifungal activity Saccharomyces cerevisiae ATCC 9763 MIC [3] | MIC Saccharomyces cerevisiae ATCC 9763 [3] | MIC Candida dubliniensis CBS 7987 [4] | Antifungal activity Candida glabrata DSM 11226 MIC [5] | MIC Aspergillus niger LOCK E201 [6] | Antifungal activity Candida krusei DSM 6128 MIC (Candida krusei DSM 6128) | MIC Candida lipolytica KKP 322 [7] | MIC Trichoderma viride LOCK E159 [8] | Antifungal activity Candida albicans ATCC 10231 IC50 [9] | Antifungal activity Candida albicans ATCC 10231 MIC [9] | MIC Candida albicans ATCC 10231 [9] | MIC Candida quilliermondii DSM 11947 [10] | MIC Candida parapsilosis DSM 5784 [11] | Antifungal activity Candida tropicalis KKP 334 MIC [12] | MIC Candida stellatoidea CBS 1905 [13] | MIC Candida pseudotropicalis KKP 324 [14] | MIC Candida albicans F2 (Candida albicans F2) | further results
1 | CCCN(CC(=O)C(O)C(O)C(O)CO)C1C(O)C(C)OC(OC2C=CC=CC=CC=CCCC=CC=CC(C)C(O)C(C)C(C)OC(=O)CC(O)CC(O)CCC(O)C(O)CC(O)CC3(O)CC(O)C(C(=O)O)C(C2)O3)C1O.CNCC(O)C(O)C(O)C(O)CO [Compound N59, N-methyl-D-glucamine salt of N-fructosyl-N-n-propylnystatin A1] |  |  |  |  |  |  |  |  |  |  |  |  |  |  |  |  |  |  |  |  | water solubility of the salt [1]: water soluble
2 | CC1OC(O[C@H]2/C=C/C=C/C=C/C=C/CC/C=C/C=C/[C@H](C)[C@@H](O)[C@@H](C)[C@H](C)OC(=O)C[C@H](O)C[C@H](O)C[C@H](O)CC[C@@H](O)[C@H](O)CC3(O)C[C@H](O)[C@@H](C(=O)O)[C@H](C2)O3)C(O)C(NC(=S)NCC(C)(C)CN(C)C)C1O (stereo partly shown) [Compound N19, N-{3-[3-(N,N-dimethylamino)-2,2-dimethylpropyl]thioureidyl}nystatin A1] | 209.91 µg/mL | 4 µg/mL (≈ 3.64 µM) | 4 µg/mL | 4 µg/mL | 4 µg/mL (≈ 3.64 µM) | 4 µg/mL (≈ 3.64 µM) | 8 µg/mL | 8 µg/mL (≈ 7.28 µM) | 8 µg/mL | 4 µg/mL (≈ 3.64 µM) | 8 µg/mL (≈ 7.28 µM) | 2.90 µg/mL | 4 µg/mL | 4 µg/mL (≈ 3.64 µM) | 4 µg/mL (≈ 3.64 µM) | 4 µg/mL (≈ 3.64 µM) | 4 µg/mL | 8 µg/mL (≈ 7.28 µM) | 4 µg/mL (≈ 3.64 µM) | 4 µg/mL (≈ 3.64 µM) | Cytotoxicity IC50 LLC-PK1 (LLC-PK1; LLC-PK1, 120 h, MTT): >100 µg/mL; Cytotoxicity IC50 HepG2 (HepG2; HepG2, 120 h, MTT): >100 µg/mL; Cytotoxicity IC50 CCRF-CEM (CCRF-CEM; CCRF-CEM, 120 h, MTT): >100 µg/mL; MIC Candida albicans STY31 (Candida albicans STY31): 4 µg/mL (≈ 3.64 µM); MIC Candida albicans F5 (Candida albicans F5): 4 µg/mL (≈ 3.64 µM); MIC Candida albicans STY19 (Candida albicans STY19): 4 µg/mL (≈ 3.64 µM); MIC Candida albicans Gu4 (Candida albicans Gu4): 4 µg/mL (≈ 3.64 µM); MIC Candida albicans 5674 (Candida albicans 5674): 4 µg/mL (≈ 3.64 µM); MIC Candida albicans B4 (Candida albicans B4): 4 µg/mL (≈ 3.64 µM); MIC Candida albicans B3 (Candida albicans B3): 4 µg/mL (≈ 3.64 µM); MIC Candida albicans Gu5 (Candida albicans Gu5): 4 µg/mL (≈ 3.64 µM); MIC Candida albicans STY7 (Candida albicans STY7): 4 µg/mL (≈ 3.64 µM)
3 | C[C@@H]1[C@H](O)[C@@H](C)/C=C/C=C/CC/C=C/C=C/C=C/C=C/C(O[C@H]2O[C@H](C)[C@@H](O)[C@H](N)[C@@H]2O)CC2O[C@](O)(CC(O)C(O)CCC(O)CC(O)CC(O)CC(=O)O[C@H]1C)CC(O)C2C(=O)O (stereo partly shown) [Nystatin, Nystatin A1] | 22.13 µg/mL | 1 µg/mL (≈ 1.08 µM) | 0.25 µg/mL | 0.5 µg/mL | 0.5 µg/mL (≈ 0.54 µM) | 1 µg/mL (≈ 1.08 µM) | 1 µg/mL | 1 µg/mL (≈ 1.08 µM) | 1 µg/mL | 0.5 µg/mL (≈ 0.54 µM) | 1 µg/mL (≈ 1.08 µM) | 0.23 µg/mL | 0.5 µg/mL | 0.5 µg/mL (≈ 0.54 µM) | 0.5 µg/mL (≈ 0.54 µM) | 1 µg/mL (≈ 1.08 µM) | 0.5 µg/mL | 1 µg/mL (≈ 1.08 µM) | 1 µg/mL (≈ 1.08 µM) | 1 µg/mL (≈ 1.08 µM) | % of hemolysis at the concentration 60 μg ml^−1 (Human erythrocytes; 60 μg ml^−1): 100%; % of hemolysis at the concentration 300 μg ml^−1 (Human erythrocytes; 300 μg ml^−1): 100%; Cytotoxicity IC50 LLC-PK1 (LLC-PK1): >100 µg/mL; Cytotoxicity IC50 HepG2 (HepG2): 24.9 ± 2.332 µg/mL; Cytotoxicity IC50 CCRF-CEM (CCRF-CEM): >100 µg/mL; MIC Candida albicans STY31 (Candida albicans STY31): 1 µg/mL (≈ 1.08 µM); MIC Candida albicans F5 (Candida albicans F5): 1 µg/mL (≈ 1.08 µM); MIC Candida albicans STY19 (Candida albicans STY19): 1 µg/mL (≈ 1.08 µM); MIC Candida albicans Gu4 (Candida albicans Gu4): 0.5 µg/mL (≈ 0.54 µM); MIC Candida albicans 5674 (Candida albicans 5674): 1 µg/mL (≈ 1.08 µM); MIC Candida albicans B4 (Candida albicans B4): 1 µg/mL (≈ 1.08 µM); MIC Candida albicans B3 (Candida albicans B3): 0.5 µg/mL (≈ 0.54 µM); MIC Candida albicans Gu5 (Candida albicans Gu5): 1 µg/mL (≈ 1.08 µM); MIC Candida albicans STY7 (Candida albicans STY7): 1 µg/mL (≈ 1.08 µM)
